Test results as given in patent US10800791B2, “Triazole ACC inhibitors and uses thereof” (Gilead Apollo, LLC, priority 2015, dated 2020).
≈ marks a conversion by molar mass, not a printed value. Read-outs that look alike come from different tables or passages of the source.

Legend:
C. krusei = assay: Antifungal Activity Assay (broth microtiter MIC), C. krusei; type: cell-based, Candida krusei; conditions: Pichia kudriavzevii, ATCC6258, 48 h
In short: (§1)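 Susceptibility was determined by CLSI M27-A3 broth microdilution in RPMI 1640 buffered with MOPS. Growth inhibition was scored visually after 48 h.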

[1] = test system: Collectotrichum graminicola (Cg); assay: Growth inhibition assay of fungal pathogens, Cg; type: cell-based; conditions: 48 h, growth inhibition at 48 hours vs 2% DMSO control
In short: (§2)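 Percent inhibition derived at 48 hours from OD600 and visual scores versus 2% DMSO control, with media+DMSO blank as background. Spore inocula in 17% V8 medium were sized from 48 h growth curves; compounds tested at final 50/10/2 or 2/0.4/0.08 ppm.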

Diplodia maydis (Dm) = assay: Growth inhibition assay of fungal pathogens, Dm; type: cell-based; conditions: Stenocarpella maydis, 48 h, growth inhibition at 48 hours vs 2% DMSO control
In short: as §2

[2] = test system: Fusarium virguliforme (Fv); assay: Growth inhibition assay of fungal pathogens, Fv; type: cell-based; conditions: 48 h
In short: as §2

[3] = test system: Fusarium moniliforme (Fm); assay: Growth inhibition assay of fungal pathogens, Fm; type: cell-based; conditions: Fusarium verticillioides, 48 h, read-out: Concentration at 90% Inhibition Fm
In short: as §2

C. albicans = assay: Antifungal Activity Assay (broth microtiter MIC), C. albicans; type: cell-based, Candida albicans; conditions: Candida albicans, ATCC90028, 48 h
In short: as §1

[4] = test system: Phytophthora capsici (Pc); assay: Growth inhibition assay of fungal pathogens, Pc; type: cell-based; conditions: 48 h
In short: as §2

Rhizoctonia solani (Rs) = assay: Growth inhibition assay of fungal pathogens, Rs; type: cell-based; conditions: 48 h
human (hACC2) = human (hACC2) (Homo sapiens, UniProt O00763); assay: In vitro ACC inhibition assay (ADP-Glo), hACC2; type: biochemical; conditions: 5 nM ACC2, 20 μM ATP, 20 μM acetyl-CoA
Protocol: The detailed procedure is as follows. […] 10 μL ADP glo reagent was added. […] 20 μL kinase detection reagent was added.

Botrtyis cinerea (Bc) = assay: Growth inhibition assay of fungal pathogens, Bc; type: cell-based; conditions: 48 h, growth inhibition at 48 hours vs 2% DMSO control
In short: as §2

fungal (fACC2) = fungal (fACC2) (UniProt Q00955); conditions: read-out: fACC2 (in vitro ACC2 Inhibition Assay, IC50), ADP-Glo, 5 nM ACC2, 20 μM ATP, 20 μM acetyl-CoA
C. parapsilosis = assay: Antifungal Activity Assay (broth microtiter MIC), C. parapsilosis; type: cell-based, Candida parapsilosis; conditions: Lodderomyces parapsilosis, ATCC22019, 48 h
In short: as §1

Septoria tritici (St) = assay: Growth inhibition assay of fungal pathogens, St; type: cell-based; conditions: Zymoseptoria tritici, 48 h, growth inhibition at 48 hours vs 2% DMSO control
In short: as §2

[5] = Table 3a, ATCC 6258, 3 replicates, MIC recorded at 48 h, read-out: MIC, C. krusei ATCC 6258
[6] = Table 3b (additional results), ATCC 6258, 3 replicates, MIC recorded at 48 h, read-out: MIC, C. krusei ATCC 6258
[7] = Collectotrichum graminicola, read-out: Concentration at 90% Inhibition Cg
[8] = Diplodia maydis, read-out: Concentration at 90% Inhibition Dm
[9] = growth inhibition at 48 hours vs 2% DMSO control, read-out: Concentration at 90% Inhibition Fv
[10] = Fusarium moniliforme, growth inhibition at 48 hours vs 2% DMSO control
[11] = Table 3a, ATCC 90028, 3 replicates, MIC recorded at 48 h, read-out: MIC, C. albicans ATCC 90028
[12] = Table 3b (additional results), ATCC 90028, 3 replicates, MIC recorded at 48 h, read-out: MIC, C. albicans ATCC 90028
[13] = growth inhibition at 48 hours vs 2% DMSO control, read-out: Concentration at 90% Inhibition Pc
[14] = mycelial plugs, growth inhibition at 48 hours vs 2% DMSO control, read-out: Concentration at 90% Inhibition Rs
[15] = Botrtyis cinerea, read-out: Concentration at 90% Inhibition Bc
[16] = Table 3a, ATCC 22019, 3 replicates, MIC recorded at 48 h, read-out: MIC, C. parapsilosis ATCC 22019
[17] = Table 3b (additional results), ATCC 22019, 3 replicates, MIC recorded at 48 h, read-out: MIC, C. parapsilosis ATCC 22019
[18] = Septoria tritici, read-out: Concentration at 90% Inhibition St

Sequence of human (hACC2) (O00763 whole entry): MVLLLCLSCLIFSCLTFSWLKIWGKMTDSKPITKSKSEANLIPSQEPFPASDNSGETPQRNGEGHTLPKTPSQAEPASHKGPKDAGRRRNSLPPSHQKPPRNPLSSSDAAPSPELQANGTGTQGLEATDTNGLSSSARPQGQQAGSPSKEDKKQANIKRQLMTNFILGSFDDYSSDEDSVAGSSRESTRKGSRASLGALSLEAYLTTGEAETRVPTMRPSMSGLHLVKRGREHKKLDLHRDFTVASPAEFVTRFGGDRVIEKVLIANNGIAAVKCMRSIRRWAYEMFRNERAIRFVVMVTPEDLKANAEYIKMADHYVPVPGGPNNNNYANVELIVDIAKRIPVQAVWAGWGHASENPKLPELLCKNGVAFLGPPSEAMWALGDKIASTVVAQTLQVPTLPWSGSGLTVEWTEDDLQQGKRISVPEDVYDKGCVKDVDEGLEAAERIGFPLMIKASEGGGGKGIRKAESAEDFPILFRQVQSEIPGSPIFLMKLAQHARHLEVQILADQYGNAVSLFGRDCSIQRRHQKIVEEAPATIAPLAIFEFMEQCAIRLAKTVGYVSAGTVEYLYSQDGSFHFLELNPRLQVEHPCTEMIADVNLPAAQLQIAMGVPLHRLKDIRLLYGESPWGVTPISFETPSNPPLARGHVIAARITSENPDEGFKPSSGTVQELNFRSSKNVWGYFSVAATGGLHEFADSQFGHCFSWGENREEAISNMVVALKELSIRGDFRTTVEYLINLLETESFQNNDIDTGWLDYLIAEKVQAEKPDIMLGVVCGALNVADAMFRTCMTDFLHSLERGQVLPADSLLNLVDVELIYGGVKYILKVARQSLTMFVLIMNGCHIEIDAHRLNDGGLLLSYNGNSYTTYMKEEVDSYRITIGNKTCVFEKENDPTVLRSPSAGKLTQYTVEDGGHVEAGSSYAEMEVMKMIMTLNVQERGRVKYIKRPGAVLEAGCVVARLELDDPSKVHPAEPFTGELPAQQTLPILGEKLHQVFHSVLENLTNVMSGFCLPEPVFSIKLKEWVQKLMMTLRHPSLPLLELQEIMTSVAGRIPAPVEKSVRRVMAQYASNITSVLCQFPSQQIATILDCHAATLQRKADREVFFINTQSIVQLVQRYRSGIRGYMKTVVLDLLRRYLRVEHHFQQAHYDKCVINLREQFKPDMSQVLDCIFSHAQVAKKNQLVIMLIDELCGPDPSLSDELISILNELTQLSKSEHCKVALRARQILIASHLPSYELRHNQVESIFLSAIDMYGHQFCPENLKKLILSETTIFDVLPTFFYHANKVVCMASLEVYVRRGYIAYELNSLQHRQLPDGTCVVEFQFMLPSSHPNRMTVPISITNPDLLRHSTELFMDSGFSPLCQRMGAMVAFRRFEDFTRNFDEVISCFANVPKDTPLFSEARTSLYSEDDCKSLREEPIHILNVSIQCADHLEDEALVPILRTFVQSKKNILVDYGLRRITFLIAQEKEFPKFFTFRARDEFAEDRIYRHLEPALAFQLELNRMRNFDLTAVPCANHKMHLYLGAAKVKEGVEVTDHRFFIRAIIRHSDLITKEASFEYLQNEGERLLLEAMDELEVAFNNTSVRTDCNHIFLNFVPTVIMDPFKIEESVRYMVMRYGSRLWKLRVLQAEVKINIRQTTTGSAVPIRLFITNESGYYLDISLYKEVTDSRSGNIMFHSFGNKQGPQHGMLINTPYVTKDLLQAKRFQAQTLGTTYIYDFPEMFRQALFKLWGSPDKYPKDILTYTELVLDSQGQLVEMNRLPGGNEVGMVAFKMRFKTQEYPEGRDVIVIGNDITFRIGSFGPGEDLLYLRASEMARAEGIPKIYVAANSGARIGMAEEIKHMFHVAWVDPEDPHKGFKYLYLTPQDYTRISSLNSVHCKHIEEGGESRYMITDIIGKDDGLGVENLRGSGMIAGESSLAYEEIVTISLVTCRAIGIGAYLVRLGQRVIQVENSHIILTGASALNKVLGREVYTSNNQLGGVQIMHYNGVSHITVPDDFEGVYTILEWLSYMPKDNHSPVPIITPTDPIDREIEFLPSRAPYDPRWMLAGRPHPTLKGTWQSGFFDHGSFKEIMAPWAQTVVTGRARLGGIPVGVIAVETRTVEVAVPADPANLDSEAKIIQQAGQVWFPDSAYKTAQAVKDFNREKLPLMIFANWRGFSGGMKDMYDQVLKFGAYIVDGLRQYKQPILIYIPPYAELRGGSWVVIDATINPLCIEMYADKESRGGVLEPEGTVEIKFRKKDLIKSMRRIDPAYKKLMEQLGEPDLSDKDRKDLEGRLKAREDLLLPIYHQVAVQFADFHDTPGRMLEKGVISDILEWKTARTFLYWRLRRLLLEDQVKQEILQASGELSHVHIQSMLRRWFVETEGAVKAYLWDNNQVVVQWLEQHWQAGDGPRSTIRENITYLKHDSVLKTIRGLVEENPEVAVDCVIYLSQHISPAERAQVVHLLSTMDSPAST
Sequence of fungal (fACC2) (Q00955 whole entry): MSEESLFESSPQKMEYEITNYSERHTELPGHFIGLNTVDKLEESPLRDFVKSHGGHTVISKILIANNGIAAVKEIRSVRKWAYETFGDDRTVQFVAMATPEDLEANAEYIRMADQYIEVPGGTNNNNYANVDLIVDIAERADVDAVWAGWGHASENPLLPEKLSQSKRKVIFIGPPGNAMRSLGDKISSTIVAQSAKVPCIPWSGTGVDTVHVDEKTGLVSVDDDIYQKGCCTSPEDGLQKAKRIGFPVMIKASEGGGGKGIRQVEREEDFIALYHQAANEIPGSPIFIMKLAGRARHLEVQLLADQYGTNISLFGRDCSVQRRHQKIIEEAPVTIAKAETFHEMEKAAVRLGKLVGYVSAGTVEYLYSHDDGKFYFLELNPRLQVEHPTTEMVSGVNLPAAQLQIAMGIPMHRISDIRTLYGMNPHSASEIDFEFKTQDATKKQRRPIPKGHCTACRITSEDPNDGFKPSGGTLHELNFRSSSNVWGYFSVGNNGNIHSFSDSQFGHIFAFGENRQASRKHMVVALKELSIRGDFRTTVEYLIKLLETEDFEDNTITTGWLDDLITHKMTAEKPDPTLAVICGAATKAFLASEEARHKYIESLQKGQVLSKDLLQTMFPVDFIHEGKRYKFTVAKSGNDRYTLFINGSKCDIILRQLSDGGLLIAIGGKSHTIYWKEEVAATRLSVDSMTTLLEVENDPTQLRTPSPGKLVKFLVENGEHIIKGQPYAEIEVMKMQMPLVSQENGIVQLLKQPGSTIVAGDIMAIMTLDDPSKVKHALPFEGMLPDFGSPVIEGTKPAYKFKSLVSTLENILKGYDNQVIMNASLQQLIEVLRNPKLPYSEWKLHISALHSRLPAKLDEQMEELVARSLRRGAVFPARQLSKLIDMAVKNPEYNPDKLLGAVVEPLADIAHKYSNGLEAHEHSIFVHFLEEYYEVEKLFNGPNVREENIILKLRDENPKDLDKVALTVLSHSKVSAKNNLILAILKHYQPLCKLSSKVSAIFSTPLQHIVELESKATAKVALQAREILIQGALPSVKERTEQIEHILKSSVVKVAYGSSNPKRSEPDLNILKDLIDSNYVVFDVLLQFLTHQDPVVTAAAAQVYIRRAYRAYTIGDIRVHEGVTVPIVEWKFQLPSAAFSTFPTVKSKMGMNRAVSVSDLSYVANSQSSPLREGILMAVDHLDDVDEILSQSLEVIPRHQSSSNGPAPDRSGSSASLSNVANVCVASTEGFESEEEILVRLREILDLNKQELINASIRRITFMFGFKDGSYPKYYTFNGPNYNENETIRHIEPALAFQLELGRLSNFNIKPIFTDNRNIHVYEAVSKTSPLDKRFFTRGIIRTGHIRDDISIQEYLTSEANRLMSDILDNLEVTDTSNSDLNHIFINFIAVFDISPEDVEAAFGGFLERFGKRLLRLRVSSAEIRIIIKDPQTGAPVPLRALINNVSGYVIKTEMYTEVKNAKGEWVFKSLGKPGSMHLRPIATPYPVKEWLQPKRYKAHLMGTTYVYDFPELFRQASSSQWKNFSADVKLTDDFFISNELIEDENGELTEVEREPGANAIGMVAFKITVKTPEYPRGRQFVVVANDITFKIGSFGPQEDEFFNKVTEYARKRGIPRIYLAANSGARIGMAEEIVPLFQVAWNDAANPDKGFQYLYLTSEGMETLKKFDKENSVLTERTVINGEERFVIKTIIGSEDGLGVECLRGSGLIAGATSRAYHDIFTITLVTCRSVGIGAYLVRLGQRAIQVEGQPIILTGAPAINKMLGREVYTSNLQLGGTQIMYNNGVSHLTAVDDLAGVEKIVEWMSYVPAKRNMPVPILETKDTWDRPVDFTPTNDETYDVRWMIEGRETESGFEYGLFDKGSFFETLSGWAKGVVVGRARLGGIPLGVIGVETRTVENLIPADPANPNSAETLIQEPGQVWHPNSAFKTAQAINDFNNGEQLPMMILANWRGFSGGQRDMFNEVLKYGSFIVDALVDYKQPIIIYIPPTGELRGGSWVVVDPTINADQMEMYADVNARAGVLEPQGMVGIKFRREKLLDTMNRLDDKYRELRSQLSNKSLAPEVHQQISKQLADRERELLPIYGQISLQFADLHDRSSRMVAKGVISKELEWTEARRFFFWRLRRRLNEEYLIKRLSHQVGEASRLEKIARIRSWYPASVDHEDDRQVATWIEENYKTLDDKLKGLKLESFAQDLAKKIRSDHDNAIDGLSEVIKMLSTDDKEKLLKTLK

Row | Compound | IC50 (human (hACC2); Table 2a) [nM] | IC50 (human (hACC2); Table 2b, additional results) [nM] | IC50 (fungal (fACC2); Table 2a) [nM] | IC50 (fungal (fACC2); Table 2b, additional results) [nM] | MIC (C. krusei; [5]) [µg/mL] | MIC (C. krusei; [6]) [µg/mL] | IC90 [1, 7] [µg/mL] | IC90 (Diplodia maydis (Dm); [8]) [µg/mL] | IC90 [2, 9] [µg/mL] | IC90 [3, 10] [µg/mL] | MIC (C. albicans; [11]) [µg/mL] | MIC (C. albicans; [12]) [µg/mL] | IC90 [4, 13] [µg/mL] | IC90 (Rhizoctonia solani (Rs); [14]) [µg/mL] | IC90 (Botrtyis cinerea (Bc); [15]) [µg/mL] | MIC (C. parapsilosis; [16]) [µg/mL] | MIC (C. parapsilosis; [17]) [µg/mL] | IC90 (Septoria tritici (St); [18]) [µg/mL] | also measured
1 | COc1ccc(F)cc1[C@H](Cn1c(=O)n([C@H](C)C(=O)NC(C)C)c(=O)c2c(C)c(-n3nccn3)sc21)OCCC#N [Compound I-138] | 1 to 5 | 1 to 5 | 1 to 5 | 0.3 to 1 | – | – | – | – | – | – | – | – | – | – | – | – | – | – | MIC (C. krusei; read-out: MIC, C. krusei ATCC 6258, Table 3a, 3 replicates, MIC recorded at 48 h): 0.25 to 1 µg/mL (≈ 0.428 to 1.71 µM); MIC (C. krusei; read-out: MIC, C. krusei ATCC 6258, Table 3b (additional results), 3 replicates, MIC recorded at 48 h): 2.01 to 4 µg/mL (≈ 3.44 to 6.85 µM); IC90 ([1]; read-out: Concentration at 90% Inhibition Cg, Collectotrichum graminicola): 0.08 µg/mL (≈ 0.137 µM); IC90 (Diplodia maydis (Dm); read-out: Concentration at 90% Inhibition Dm, Diplodia maydis): 0.08 µg/mL (≈ 0.137 µM); IC90 ([2]; read-out: Concentration at 90% Inhibition Fv, Fusarium virguliforme, growth inhibition at 48 hours vs 2% DMSO control): 0.4 µg/mL (≈ 0.685 µM); IC90 [3]: 0.08 µg/mL (≈ 0.137 µM); MIC (C. albicans; read-out: MIC, C. albicans ATCC 90028, Table 3a, 3 replicates, MIC recorded at 48 h): 0.25 to 1 µg/mL (≈ 0.428 to 1.71 µM); MIC (C. albicans; read-out: MIC, C. albicans ATCC 90028, Table 3b (additional results), 3 replicates, MIC recorded at 48 h): > 4.01 µg/mL; IC90 ([4]; read-out: Concentration at 90% Inhibition Pc, Phytophthora capsici, growth inhibition at 48 hours vs 2% DMSO control): 2 µg/mL (≈ 3.43 µM); IC90 (Rhizoctonia solani (Rs); read-out: Concentration at 90% Inhibition Rs, Rhizoctonia solani, mycelial plugs, growth inhibition at 48 hours vs 2% DMSO control): 0.08 µg/mL (≈ 0.137 µM); IC90 (Botrtyis cinerea (Bc); read-out: Concentration at 90% Inhibition Bc, Botrtyis cinerea): 0.4 µg/mL (≈ 0.685 µM); MIC (C. parapsilosis; read-out: MIC, C. parapsilosis ATCC 22019, Table 3a, 3 replicates, MIC recorded at 48 h): 0.25 to 1 µg/mL (≈ 0.428 to 1.71 µM); MIC (C. parapsilosis; read-out: MIC, C. parapsilosis ATCC 22019, Table 3b (additional results), 3 replicates, MIC recorded at 48 h): 1.01 to 2 µg/mL (≈ 1.73 to 3.43 µM); IC90 (Septoria tritici (St); read-out: Concentration at 90% Inhibition St, Septoria tritici): 2 µg/mL (≈ 3.43 µM)
2 | CCc1ccc(F)cc1[C@H](Cn1c(=O)n(C(C)(C)C(=O)NC(C)C)c(=O)c2c(C)c(-n3nccn3)sc21)OCCO [Compound I-124] | 1 to 5 | 1 to 5 | 0.4 to 1 | 0.3 to 1 | 0.06 to 0.24 (≈ 0.102 to 0.409 µM) | 2.01 to 4 (≈ 3.43 to 6.82 µM) | 0.08 (≈ 0.136 µM) | 0.4 (≈ 0.682 µM) | 0.08 (≈ 0.136 µM) | 0.08 (≈ 0.136 µM) | 0.25 to 1 (≈ 0.426 to 1.7 µM) | 2.01 to 4 (≈ 3.43 to 6.82 µM) | 10 (≈ 17 µM) | 0.08 (≈ 0.136 µM) | 0.4 (≈ 0.682 µM) | 0.25 to 1 (≈ 0.426 to 1.7 µM) | 2.01 to 4 (≈ 3.43 to 6.82 µM) | 2 (≈ 3.41 µM) | –
3 | CCc1ccc(F)cc1[C@H](Cn1c(=O)n(C(C)(C)C(=O)NC(C)C)c(=O)c2c(C)c(-n3nccn3)sc21)OCCOC [Compound I-126] | 5 to 10 | 5 to 10 | 1 to 5 | 1 to 5 | 0.25 to 1 (≈ 0.416 to 1.66 µM) | > 4.01 | 0.4 (≈ 0.666 µM) | 2 (≈ 3.33 µM) | 0.4 (≈ 0.666 µM) | 0.08 (≈ 0.133 µM) | 1.1 to 2 (≈ 1.83 to 3.33 µM) | > 4.01 | > 50 | 2 (≈ 3.33 µM) | 0.4 (≈ 0.666 µM) | 1.1 to 2 (≈ 1.83 to 3.33 µM) | 2.01 to 4 (≈ 3.35 to 6.66 µM) | 10 (≈ 16.6 µM) | –
4 | CCc1ccc(F)cc1[C@@H](Cn1c(=O)n(C(C)(C)C(=O)NC(C)C)c(=O)c2c(C)c(-n3nccn3)sc21)OC[C@H](C)C#N [Compound I-245] | – | 1 to 5 | – | 0.3 to 1 | – | > 4.01 | 0.08 (≈ 0.131 µM) | 2 (≈ 3.28 µM) | 0.08 (≈ 0.131 µM) | 0.08 (≈ 0.131 µM) | – | 2.01 to 4 (≈ 3.3 to 6.56 µM) | > 50 | 0.08 (≈ 0.131 µM) | 0.08 (≈ 0.131 µM) | – | 2.01 to 4 (≈ 3.3 to 6.56 µM) | > 50 | –
